Data taken from the NIST ThermoML archive (doi:10.1021/je0603574).
Where “and” joins values, the source holds several entries; their conditions need not be identical. Equal values may be shown once. Numbers after ± are expanded uncertainties.

Key:
[1] = 323.15 K; Liquid; Closed cell (Static) method
[2] = excess molar enthalpy (molar enthalpy of mixing); xn = mol fraction of the nth substance listed; conditions: 323.15 K, Liquid, Flow calorimetry

CO [methanol]
Conditions	vapor or sublimation pressure [kPa]
[1]	55.3 ± 0.25

COC [dimethyl ether] + CCCO
[2]
Conditions	excess molar enthalpy [kcal/mol]
x1 = 0.0541	0.0344 ± 0.000813
x1 = 0.1078	0.0655 ± 0.00146
x1 = 0.161	0.0937 ± 0.00206
x1 = 0.2138	0.118 ± 0.00263
x1 = 0.2661	0.139 ± 0.00311
x1 = 0.3179	0.158 ± 0.00335
x1 = 0.3693	0.173 ± 0.00382
x1 = 0.4203	0.184 ± 0.00406
x1 = 0.4708	0.192 ± 0.00406
x1 = 0.521	0.197 ± 0.0043
x1 = 0.5707	0.197 ± 0.0043
x1 = 0.62	0.195 ± 0.0043
x1 = 0.6688	0.189 ± 0.00406
x1 = 0.7173	0.178 ± 0.00382
x1 = 0.7654	0.164 ± 0.00359
x1 = 0.8131	0.144 ± 0.00311
x1 = 0.8604	0.119 ± 0.00263
x1 = 0.9073	0.0865 ± 0.00191
x1 = 0.9538	0.0466 ± 0.00108

COC [dimethyl ether] + CCCCO
[2]
Conditions	excess molar enthalpy [kcal/mol]
x1 = 0.0655	0.0435 ± 0.001
x1 = 0.129	0.0805 ± 0.00177
x1 = 0.1904	0.114 ± 0.00239
x1 = 0.2499	0.141 ± 0.00311
x1 = 0.3076	0.161 ± 0.00359
x1 = 0.3635	0.179 ± 0.00382
x1 = 0.4178	0.191 ± 0.00406
x1 = 0.4705	0.199 ± 0.0043
x1 = 0.5216	0.203 ± 0.0043
x1 = 0.5713	0.204 ± 0.0043
x1 = 0.6196	0.199 ± 0.0043
x1 = 0.6666	0.192 ± 0.00406
x1 = 0.7122	0.182 ± 0.00382
x1 = 0.7567	0.167 ± 0.00359
x1 = 0.7999	0.15 ± 0.00311
x1 = 0.842	0.129 ± 0.00287
x1 = 0.8831	0.103 ± 0.00225
x1 = 0.923	0.0729 ± 0.00163
x1 = 0.962	0.0387 ± 0.000908

COC [dimethyl ether] + CCO
[2]
Conditions	excess molar enthalpy [kcal/mol]
x1 = 0.0428	0.0209 ± 0.000526
x1 = 0.0862	0.0423 ± 0.00098
x1 = 0.1303	0.0624 ± 0.00139
x1 = 0.175	0.0815 ± 0.00179
x1 = 0.2205	0.0994 ± 0.00217
x1 = 0.2667	0.116 ± 0.00263
x1 = 0.3137	0.131 ± 0.00287
x1 = 0.3614	0.145 ± 0.00311
x1 = 0.4098	0.156 ± 0.00335
x1 = 0.4591	0.166 ± 0.00359
x1 = 0.5092	0.171 ± 0.00359
x1 = 0.5601	0.175 ± 0.00382
x1 = 0.6118	0.177 ± 0.00382
x1 = 0.6645	0.173 ± 0.00382
x1 = 0.718	0.166 ± 0.00359
x1 = 0.7725	0.153 ± 0.00335
x1 = 0.8279	0.132 ± 0.00287
x1 = 0.8842	0.102 ± 0.00222
x1 = 0.9416	0.0583 ± 0.00131

CCCO [propan-1-ol]
Conditions	vapor or sublimation pressure [kPa]
[1]	12.32 ± 0.07

COC [dimethyl ether]
Conditions	vapor or sublimation pressure
[1]	1143 ± 5.1 kPa and 1142.9 ± 5.1 kPa and 1143.2 ± 5.1 kPa

COC [dimethyl ether] + CO
[2]
Conditions	excess molar enthalpy [kcal/mol]
x1 = 0.03	0.00583 ± 0.000239
x1 = 0.0614	0.0128 ± 0.000359
x1 = 0.0941	0.0203 ± 0.000526
x1 = 0.1282	0.0289 ± 0.000693
x1 = 0.164	0.0375 ± 0.00086
x1 = 0.2014	0.0466 ± 0.00105
x1 = 0.2406	0.0564 ± 0.00127
x1 = 0.2818	0.0664 ± 0.00148
x1 = 0.325	0.0765 ± 0.0017
x1 = 0.3704	0.0863 ± 0.00189
x1 = 0.4183	0.0949 ± 0.00208
x1 = 0.4688	0.104 ± 0.00227
x1 = 0.5222	0.112 ± 0.00239
x1 = 0.5786	0.117 ± 0.00263
x1 = 0.6384	0.12 ± 0.00263
x1 = 0.7018	0.12 ± 0.00263
x1 = 0.7693	0.113 ± 0.00239
x1 = 0.8412	0.0951 ± 0.00208
x1 = 0.9179	0.0605 ± 0.00136

CCCCO [butan-1-ol]
Conditions	vapor or sublimation pressure [kPa]
[1]	4.61 ± 0.05

CCO [ethanol]
Conditions	vapor or sublimation pressure [kPa]
[1]	29.37 ± 0.14
